Data reported in ChEMBL document CHEMBL1139552, “Naphthamidine urokinase plasminogen activator inhibitors with improved pharmacokinetic properties” (Bioorg Med Chem Lett, 2005).

Experiments:
Trypsin = Trypsin (Sus scrofa, UniProt P00761); assay: Binding affinity value against trypsin
[1] = Binding affinity value against thrombin
[2] = Area under the curve time curve value in sprague dawley rat was determined at a dosage of 3 mg/kg; format: ADME, organism-based; set-up: dose 3 mg/kg; details: in vivo
[3] = Terminal half life value in sprague dawley rat was determined at a dosage of 3 mg/kg; format: ADME, organism-based; set-up: dose 3 mg/kg; details: in vivo
[4] = Bioavailability in rat (Sprague-Dawley) (dose 10 mg/kg); format: ADME, organism-based; details: in vivo
[5] = Volume distribution value in sprague dawley rat was determined at a dosage of 3 mg/kg; format: ADME, organism-based; set-up: dose 3 mg/kg; details: in vivo
[6] = target: Urokinase-type plasminogen activator (Homo sapiens, UniProt P00749)
Description: Binding affinity value against urokinase plasminogen activator

in vivo [7] = details: Sprague-Dawley, rat, 3 mg/kg
Description: (§1) Clearance value in sprague dawley rat was determined at a dosage of 3 mg/kg

[8] = rat, in vivo, 3 mg/kg
Description: as §1

Plasminogen = Plasminogen (Homo sapiens, UniProt P00747); assay: Binding affinity value against plasmin
Sequence of Plasminogen (P00747 97-580 limits assumed): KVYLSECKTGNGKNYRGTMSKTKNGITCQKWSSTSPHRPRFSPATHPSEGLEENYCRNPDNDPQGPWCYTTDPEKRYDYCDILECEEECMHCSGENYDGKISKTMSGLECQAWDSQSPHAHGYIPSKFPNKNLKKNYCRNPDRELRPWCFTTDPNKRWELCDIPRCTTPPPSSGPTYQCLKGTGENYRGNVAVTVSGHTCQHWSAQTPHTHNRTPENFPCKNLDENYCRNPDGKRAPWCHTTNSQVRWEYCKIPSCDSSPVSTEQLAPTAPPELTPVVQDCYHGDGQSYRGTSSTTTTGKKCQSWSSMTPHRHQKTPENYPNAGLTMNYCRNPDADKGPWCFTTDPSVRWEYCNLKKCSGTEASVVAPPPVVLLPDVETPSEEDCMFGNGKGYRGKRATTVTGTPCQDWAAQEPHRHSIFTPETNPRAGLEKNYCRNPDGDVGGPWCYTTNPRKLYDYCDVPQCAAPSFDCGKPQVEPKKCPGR
Sequence of Plasminogen (P00747 581-810 limits assumed): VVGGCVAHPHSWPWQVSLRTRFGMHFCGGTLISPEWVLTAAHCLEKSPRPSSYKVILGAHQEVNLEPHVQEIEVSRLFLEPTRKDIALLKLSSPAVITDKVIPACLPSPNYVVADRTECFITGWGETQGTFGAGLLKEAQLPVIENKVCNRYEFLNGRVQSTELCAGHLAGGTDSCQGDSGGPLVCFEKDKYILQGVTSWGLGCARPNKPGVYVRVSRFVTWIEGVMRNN

[9] = target: Tissue-type plasminogen activator (Homo sapiens, UniProt P00750); assay: Binding affinity value against Tissue plasminogen activator
Sequence of Tissue-type plasminogen activator (P00750 whole entry): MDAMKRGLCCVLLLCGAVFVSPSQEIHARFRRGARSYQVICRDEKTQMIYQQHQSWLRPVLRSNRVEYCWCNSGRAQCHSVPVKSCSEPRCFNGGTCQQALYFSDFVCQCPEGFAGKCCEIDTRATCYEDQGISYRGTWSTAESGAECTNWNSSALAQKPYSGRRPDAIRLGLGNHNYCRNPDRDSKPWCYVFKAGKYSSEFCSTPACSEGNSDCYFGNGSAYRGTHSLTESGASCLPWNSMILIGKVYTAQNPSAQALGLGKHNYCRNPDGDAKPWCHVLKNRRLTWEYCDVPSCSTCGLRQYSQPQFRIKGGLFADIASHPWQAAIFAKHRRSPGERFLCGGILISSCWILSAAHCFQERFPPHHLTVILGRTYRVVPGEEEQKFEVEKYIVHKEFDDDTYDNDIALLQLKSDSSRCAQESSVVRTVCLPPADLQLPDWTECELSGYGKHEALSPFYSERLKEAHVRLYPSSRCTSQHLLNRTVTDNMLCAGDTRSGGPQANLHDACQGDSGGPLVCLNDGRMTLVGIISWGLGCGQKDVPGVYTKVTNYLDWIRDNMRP

Kallikrein-1 = Kallikrein-1 (Homo sapiens, UniProt P06870)
Sequence of Kallikrein-1 (P06870 whole entry): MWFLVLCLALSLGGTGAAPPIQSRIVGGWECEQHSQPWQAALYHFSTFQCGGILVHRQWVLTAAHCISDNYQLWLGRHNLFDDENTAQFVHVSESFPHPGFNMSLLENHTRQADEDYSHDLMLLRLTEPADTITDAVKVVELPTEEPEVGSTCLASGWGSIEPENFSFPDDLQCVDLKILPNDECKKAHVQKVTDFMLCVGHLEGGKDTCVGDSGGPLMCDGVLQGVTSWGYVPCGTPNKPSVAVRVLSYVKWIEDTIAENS
Description: Binding affinity value against kallikrein

[10] = Bioavailability in sprague dawley rat was determined at a dosage of 3 mg/kg; NT means not tested; format: ADME, organism-based; details: in vivo
[11] = Area under the curve time curve value in sprague dawley rat was determined at a intravenous dosage of 10 mg/kg; format: ADME, organism-based; set-up: dose 10 mg/kg, route intravenous; details: in vivo
[12] = Volume distribution value in sprague dawley rat was determined at a intravenous dosage of 10 mg/kg; format: ADME, organism-based; set-up: dose 10 mg/kg, route intravenous; details: in vivo
in vivo [13] = details: Sprague-Dawley, rat, iv, 10 mg/kg
Description: Clearance value in sprague dawley rat was determined at a intravenous dosage of 10 mg/kg

[14] = Terminal half life value in sprague dawley rat was determined at a intravenous dosage of 10 mg/kg; format: ADME, organism-based; set-up: dose 10 mg/kg, route intravenous; details: in vivo

Sequence of Trypsin (P00761 whole entry): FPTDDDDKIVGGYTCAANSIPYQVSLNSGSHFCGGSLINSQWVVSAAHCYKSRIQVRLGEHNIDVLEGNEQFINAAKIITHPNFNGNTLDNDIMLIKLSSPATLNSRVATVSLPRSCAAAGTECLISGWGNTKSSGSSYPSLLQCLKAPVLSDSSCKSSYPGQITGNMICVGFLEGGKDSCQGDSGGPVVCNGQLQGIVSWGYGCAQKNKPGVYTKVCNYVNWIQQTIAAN

SMILES | Ki (Trypsin) [nM] | Ki [1] [nM] | AUC ([2]; Sprague-Dawley, read-out: AUC) [µM·h] | half-life [3] [h] | bioavailability [4] [%] | Vd [5] [L/kg] | Ki [6] [nM] | clearance (in vivo [7]) [mL/min/kg] | AUC [2] [µM·h] | CI [8] [mL/min/kg] | Ki (Plasminogen) [nM] | Ki [9] [nM] | Ki (Kallikrein-1) [nM] | CI ([8]; Sprague-Dawley) [mL/min/kg] | AUC [10] [µM·h] | AUC [11] [µM·h] | Vd [12] [L/kg] | clearance (in vivo [13]) [mL/min/kg] | half-life [14] [h]
N=C(N)c1ccc2cc(C(=O)Nc3ccccc3)cc(Nc3ncccn3)c2c1 | 40 | 170 | 0.14 | 0.6 | 0 | 37.1 | 200 | 715 | – | – | – | – | – | – | – | – | – | – | –
N=C(N)c1ccc2cc(C(=O)Nc3ccccc3)ccc2c1 | 325 | 5640 | – | 2.1 | 3 | 8.5 | – | – | 8.2 | 46.7 | – | – | – | – | – | – | – | – | –
CC(C)C1=NCCc2ccc(C3CC3c3ccc4cc(C(=N)N)ccc4c3)cc21 (stereo not drawn) | 53 | 2140 | 0.51 | 1.33 | 26 | 18.6 | – | 161 | – | – | 1050 | 4740 | 525 | – | – | – | – | – | –
N=C(N)c1ccc2cc(CCc3ccccc3)cc(Nc3ncccn3)c2c1 | 167 | 191 | – | 2 | 0 | 13.6 | – | – | 4.2 | – | 570 | 5790 | 156 | 78.3 | – | – | – | – | –
N=C(N)c1ccc2cc(C3CC3c3ccccc3)cc(Br)c2c1 (stereo not drawn) | 334 | 503 | 2.72 | 4.71 | 17 | 14.3 | 622 | 35 | – | – | 239 | 30800 | 379 | – | – | – | – | – | –
CN1CCc2ccc(C3CC3c3ccc4cc(C(=N)N)ccc4c3)cc2C1C(C)(C)C (stereo not drawn) | – | – | – | – | – | – | 548 | – | – | – | – | – | – | – | – | – | – | – | –
N=C(N)c1ccc2cc(C(=O)Nc3ccccc3)cc(Br)c2c1 | 64 | 2660 | – | 1.05 | 0 | 18.7 | 281 | 205 | – | – | 1020 | 5590 | 992 | – | 0.6 | – | – | – | –
N=C(N)c1ccc2cc(C3CC3c3ccc4c(c3)C(C3CCCCC3)=NCC4)ccc2c1 (stereo not drawn) | 428 | 1140 | 0.57 | 0.27 | 22 | 4.5 | – | 192 | – | – | 594 | 4020 | 206 | – | – | – | – | – | –
CC(C)Oc1cccc(C2CC2c2ccc3cc(C(=N)N)ccc3c2)c1 (stereo not drawn) | 141 | 1100 | 3.48 | 5.91 | 23 | 19.3 | – | 37.7 | – | – | 2450 | 21900 | 1400 | – | – | – | – | – | –
N=C(N)c1ccc2cc(CCc3ccccc3)cc(Br)c2c1 | – | – | 1.75 | 3.3 | > 32 | 18 | – | 63.3 | – | – | – | – | – | – | – | – | – | – | –
N=C(N)c1ccc2cc(C3CC3c3ccc4c(c3)C(c3ccccc3)=NCC4)ccc2c1 (stereo not drawn) | 165 | 2120 | – | – | – | – | – | – | – | – | 955 | 7040 | 336 | – | – | – | – | – | –
N=C(N)c1ccc2cc(CCc3ccccc3)cc(-c3ccoc3)c2c1 | – | – | – | – | 18 | 1.53 | 731 | – | 17.6 | – | – | – | – | 55.2 | – | – | – | – | –
CN1CCc2ccc(C3CC3c3ccc4cc(C(=N)N)ccc4c3)cc2C1C1CCCCC1 (stereo not drawn) | 31 | 996 | 0.53 | 1.53 | 27 | 18.7 | – | 142 | – | – | 811 | 18900 | 295 | – | – | – | – | – | –
N=C(N)c1ccc2cc(C3CC3c3ccccc3)cc(Nc3ncccn3)c2c1 (stereo not drawn) | 54 | 48 | 0.23 | 0.33 | 0 | 10 | 5 | 352 | – | – | 243 | 5050 | 54 | – | – | – | – | – | –
CC(C)C1=NCCc2ccc([C@H]3CC3c3ccc4cc(C(=N)N)ccc4c3)cc21 (stereo partly drawn) | 30 | 1790 | – | – | – | – | – | – | – | – | 1480 | 10400 | 640 | – | – | – | – | – | –
N=C(N)c1ccc2cc(C3CC3c3ccccc3)cc(-c3ccoc3)c2c1 (stereo not drawn) | – | – | – | – | 10 | 2.4 | – | – | 14.5 | – | – | – | – | 70 | – | – | – | – | –
CC(C)C1=NCCc2cc(C3CC3c3ccc4cc(C(=N)N)ccc4c3)ccc21 (stereo not drawn) | – | – | – | 0.33 | 0 | – | – | – | – | – | – | – | – | – | – | 0.27 | 7.9 | 273 | –
N=C(N)c1ccc2cc(CCc3ccccc3)ccc2c1 | – | – | 1.14 | 1 | 60 | 9.8 | 3180 | 113 | – | – | – | – | – | – | – | – | – | – | –
N=C(N)c1ccc2cc(/C=C/c3ccccc3)ccc2c1 | 346 | 5270 | – | – | – | – | – | – | – | – | – | 34600 | 991 | – | – | – | – | – | –
CC(C)C1c2cc(C3CC3c3ccc4cc(C(=N)N)ccc4c3)ccc2CCN1C (stereo not drawn) | 90 | 1800 | 0.37 | 0.55 | 55 | 10.3 | – | 216 | – | – | 1300 | 6230 | 576 | – | – | – | – | – | –
N=C(N)c1ccc2cc(C(=O)Nc3ccccc3)cc(-c3ccoc3)c2c1 | 45 | 132 | – | 3 | 0 | 21.7 | – | – | 5 | 83 | – | – | – | – | – | – | – | – | –
N=C(N)c1ccc2cc(/C=C/c3ccccc3)cc(-c3ccoc3)c2c1 | 96 | 237 | – | 0.62 | 0 | – | 168 | 21.7 | – | – | 134 | 4460 | 83 | – | – | 5.8 | 1.2 | – | –
N=C(N)c1ccc2cc(/C=C/c3ccccc3)cc(Br)c2c1 | 480 | 920 | – | – | – | – | 820 | – | – | – | 1350 | 13400 | 770 | – | – | – | – | – | –
N=C(N)c1ccc2cc(/C=C/c3ccccc3)cc(Nc3ncccn3)c2c1 | 84 | 395 | – | – | – | – | 10 | – | – | – | 277 | > 50000 | 42 | – | – | – | – | – | –
CC1c2cc(C3CC3c3ccc4cc(C(=N)N)ccc4c3)ccc2CCN1C (stereo not drawn) | – | – | 0.69 | 0.28 | 0 | 2.9 | – | 121 | – | – | – | – | – | – | – | – | – | – | –
N=C(N)c1ccc2cc(C3CC3c3ccccc3)ccc2c1 (stereo not drawn) | 720 | 1890 | – | – | 30 | 23 | – | – | 11.6 | 36 | 3520 | 69100 | 2480 | – | – | – | – | – | 7.4
